Measured values: DBAASP
Converted amounts (≈) assume the structure as drawn.

What was measured:
Test in all cases: ≥ marks a high value that may be exact or a test limit, other limits are often not marked, values filed in µg/mL are converted to µM
[1] = system: Pseudomonas putida
[2] = system: Escherichia coli
[3] = system: Saccharomyces cerevisiae
[4] = system: Salmonella typhimurium
[5] = system: Streptococcus mutans
[6] = system: Candida albicans
[7] = system: Serratia sp.
[8] = system: Cryptococcus neoformans
[9] = system: Bacillus subtilis
[10] = system: Staphylococcus aureus
[11] = system: Mannheimia haemolytica
[12] = system: Histophilus somni
[13] = system: Pasteurella multocida
[14] = system: Glaesserella parasuis ATCC 19417
[15] = system: Glaesserella parasuis
[16] = system: Staphylococcus aureus ATCC 29213
[17] = system: Candida albicans ATCC 37092
[18] = system: Escherichia coli ATCC 25922
[19] = system: Klebsiella pneumoniae ATCC 700603
[20] = system: Pseudomonas aeruginosa ATCC 27853
[21] = system: Staphylococcus aureus 37
[22] = system: Pseudomonas aeruginosa CMCCB 1010
[23] = system: Staphylococcus aureus ATCC 25923
[24] = system: Candida albicans ATCC 2002
[25] = system: Staphylococcus aureus 10
[26] = system: Pseudomonas aeruginosa
[27] = system: Enterococcus faecalis ATCC 29212
[28] = system: Candida albicans ATCC 90028
[29] = system: Escherichia coli 117
[30] = system: Escherichia coli 37
[31] = system: Acinetobacter baumannii
[32] = system: Acinetobacter baumannii KCTC 2508

CC[C@H](C)[C@H](NC(=O)[C@H](CO)NC(=O)[C@H](CCCCN)NC(=O)[C@H](Cc1ccccc1)NC(=O)[C@H](CCCCN)NC(=O)[C@H](CCCCN)NC(=O)[C@H](CC(C)C)NC(=O)[C@@H]1CCCN1C(=O)[C@@H](NC(=O)[C@H](CCCCN)NC(=O)[C@@H](NC(=O)[C@@H](NC(=O)[C@H](C)N)C(C)C)C(C)C)C(C)C)C(=O)N[C@@H](CCCN=C(N)N)C(=O)N[C@@H](CCC(=O)O)C(=O)O [AVVKVPLKKFKSIRE]
MIC [1]: ≥ 57.4 µM
MIC [2]: 28.7 µM (≈ 50 µg/mL)
MIC [3]: 5.74 µM (≈ 10 µg/mL)
MIC [4]: 17.2 µM (≈ 30 µg/mL)
MIC [5]: 17.2 µM (≈ 30 µg/mL)
MIC [6]: 57.4 µM (≈ 100 µg/mL)
MIC [7]: 28.7 µM (≈ 50 µg/mL)
MIC [8]: 23 µM (≈ 40 µg/mL)
MIC [9]: 11.5 µM (≈ 20 µg/mL)
MIC [10]: 28.7 µM (≈ 50 µg/mL)

CC[C@H](C)[C@@H]1NC(=O)CNC(=O)[C@H](CCCCN)NC(=O)[C@H](CC(N)=O)NC(=O)[C@H](CCCN=C(N)N)NC(=O)[C@H](C(C)C)NC(=O)[C@@H](NC(=O)[C@H](CO)NC(=O)[C@@H](NC(=O)[C@@H]2CCCN2C(=O)[C@@H](N)CC(N)=O)C(C)C)CSSC[C@@H]2NC(=O)[C@H](CCCCN)NC(=O)[C@H](C(C)C)NC(=O)[C@H](C)NC(=O)[C@H](CCCN=C(N)N)NC(=O)CNC(=O)[C@H](C(C)C)NC(=O)[C@@H]3CSSC[C@H](NC1=O)C(=O)N[C@@H](C(C)C)C(=O)N1CCC[C@H]1C(=O)N[C@@H]([C@@H](C)CC)C(=O)N[C@@H](CCCN=C(N)N)C(=O)N[C@@H](CSSC[C@@H](C(=O)N[C@@H](CCCN=C(N)N)C(=O)N[C@@H](CCCCN)C(=O)N[C@@H](CCCCN)C(=O)O)NC2=O)C(=O)N1CCC[C@H]1C(=O)NCC(=O)N[C@@H](CC(N)=O)C(=O)N[C@@H](CCSC)C(=O)N[C@@H](CCCCN)C(=O)N[C@@H](CCC(N)=O)C(=O)N[C@@H]([C@@H](C)CC)C(=O)NCC(=O)N[C@@H]([C@@H](C)O)C(=O)N3 [NPVSCVRNKGICVPIRCPGNMKQIGTCVGRAVKCCRKK]
MIC [11]: 0.753 µM (≈ 3.1 µg/mL)
MIC [12]: 1.14 µM (≈ 4.69 µg/mL)
MIC [13]: 0.558 µM (≈ 2.3 µg/mL)

C[C@H](NC(=O)[C@H](Cc1ccccc1)NC(=O)[C@H](CS)NC(=O)[C@H](Cc1c[nH]c2ccccc12)NC(=O)[C@H](CCCN=C(N)N)NC(=O)[C@@H](N)CC(N)=O)C(=O)NCC(=O)N[C@@H](CC(=O)O)C(=O)N[C@@H](CC(=O)O)C(=O)O [NRWCFAGDD]
MIC [14]: 18.5 µM (≈ 20 µg/mL)
MIC [15]: 13.1 µM (≈ 14.1 µg/mL)

CC(C)C[C@H](NC(=O)[C@@H]1CCCN1C(=O)[C@H](CCCN=C(N)N)NC(=O)[C@@H]1CCCN1)C(=O)N1CCC[C@H]1C(=O)N[C@@H](Cc1ccccc1)C(=O)N1CCC[C@H]1C(=O)N[C@@H](CCCN=C(N)N)C(=O)N1CCC[C@H]1C(=O)NCC(=O)O [PRPLPFPRPG]
MIC [16]: > 500 µM
MIC [17]: ≥ 500 µM
MIC [18]: > 500 µM

CC[C@H](C)[C@H](N)C(=O)N[C@@H](CC(N)=O)C(=O)N[C@@H](CC(C)C)C(=O)N[C@@H](CCCCN)C(=O)N[C@@H](C)C(=O)N[C@H](C(=O)N[C@@H](C)C(=O)N[C@@H](C)C(=O)N[C@@H](CC(C)C)C(=O)N[C@@H](C)C(=O)N[C@@H](CCCN=C(N)N)C(=O)N[C@@H](CC(N)=O)C(=O)N[C@@H](Cc1ccc(O)cc1)C(=O)O)[C@@H](C)CC [INLKAIAALARNY]
MIC [19]: 55.9 µM (≈ 80 µg/mL)
MIC [20]: 55.9 µM (≈ 80 µg/mL)
MIC [21]: 6.99 µM (≈ 10 µg/mL)
MIC [22]: ≥ 55.9 µM
MIC [23]: 6.99 µM (≈ 10 µg/mL)
MIC [24]: ≥ 55.9 µM
MIC [25]: 28 µM (≈ 40 µg/mL)
MIC [26]: 6.99 µM (≈ 10 µg/mL)
MIC [27]: 3.49 µM (≈ 5 µg/mL)
MIC [28]: 14 µM (≈ 20 µg/mL)
MIC [29]: 28 µM (≈ 40 µg/mL)
MIC [30]: ≥ 55.9 µM

CC[C@H](C)[C@H](NC(=O)CNC(=O)[C@H](CC(C)C)NC(=O)[C@H](CCCN=C(N)N)NC(=O)[C@H](CCCCN)NC(=O)[C@H](Cc1ccccc1)NC(=O)[C@@H](NC(=O)[C@H](CCCCN)NC(=O)[C@H](CCCCN)NC(=O)[C@H](C)N)C(C)C)C(=O)NCC(=O)N[C@@H](CCCCN)C(=O)N[C@@H](Cc1ccccc1)C(=O)N[C@@H](CC(C)C)C(=O)N[C@@H](Cc1cnc[nH]1)C(=O)N[C@@H](CO)C(=O)N[C@@H](C)C(=O)N[C@@H](CCCCN)C(=O)N[C@@H](CCCCN)C(=O)N[C@@H](Cc1ccccc1)C(N)=O [AKKVFKRLGIGKFLHSAKKF]
MIC [31]: 6.25 µM (≈ 14.4 µg/mL)
MIC [32]: 6.25 µM (≈ 14.4 µg/mL)
